In patent publication US20130131321A1, “LIGANDS FOR ANTIBODY AND Fc-FUSION PROTEIN PURIFICATION BY AFFINITY CHROMATOGRAPHY” (GRAFFINITY PHARMACEUTICALS GMBH, priority 2010, published 2013):

How the values were obtained:
[1] = system: Bevacizumab; assay: Microtiter plate chromatography of resins, Bevacizumab whole IgG (bound, yield, selectivity); type: binding, humanized
Description: (§1) Resins were assessed in packed mode by microtiter plate chromatography. For each column, approximately 30 μl of resin were transferred to a 384-well filter plate and sealed with appropriate top frits.
(§2) Columns were equilibrated with 6.7 column volumes (cv) of phosphate buffered saline (0.15 M NaCl, 20 mM sodium phosphate, pH 7.3; PBS) prior to injection. Either 3.3 cv of whole IgGs dissolved at 0.75 mg ml^−1, Fab or Fc fragments dissolved at 0.25 mg ml^−1 (all three in PBS) or host cell proteins (HCP) were injected onto columns. Antibody fragments of Bevacizumab (Fab and Fc) were prepared by cleavage of whole IgG with papain protease (3) according to the protocol of the manufacturer. […] Volumes transferred were spun through columns at 50 g for 1-2 min. During injection of samples, acceleration was reduced to 10 g and centrifugation time increased to 5-10 min. Effluent fractions were collected in 384-well plates and concentrations of protein analyzed by Bradford assay. Protein masses mi, mft and me (see below) were calculated as the product of fraction volume and measured protein concentration.
(§3) The fraction of ‘bound’ protein was calculated as the difference between the total mass of protein injected mi and the mass of protein detected in the flowthrough mft, divided by the total mass of protein injected.
(§4) The ‘yield’ of protein was calculated as the mass of protein eluted me, divided by the mass of protein injected mi.
(§5) The ‘selectivity’ of resins was calculated as the fraction of bound antibody BAb, divided by the fraction of bound host cell proteins BHCP.
(§6) the fraction of ‘bound’ protein and the ‘yield’ of protein were calculated for each resin based on data for whole IgG-antibodies. In the case of Bevacizumab fragments and host cell proteins, only the fraction of ‘bound’ protein is given. Selectivity of resins was calculated from data for Bevacizumab Whole IgG and host cell proteins. Due to limited experimental precision, selectivity was truncated beyond values of 10.

[2] = target: T1, Bevacizumab (Homo sapiens, UniProt P01857); assay: as above; type: binding, humanized; conditions: for Bevacizumab IgG Bound (%): fraction of whole IgG Bevacizumab bound to resin; for Bevacizumab IgG Yield (%): mass of whole IgG Bevacizumab eluted / mass injected
T1 construct: fused on or other part: humanised anti-VEGF-A VH domain N-terminal of the gamma-1 constant region (engineered, no UniProt entry)
Description: as §1, §2, §3, §4, §5, §6

[3] = system: Tocilizumab; assay: Microtiter plate chromatography of resins, Tocilizumab (bound, yield); type: binding, humanized
Description: as §1, §2, §3, §4, §6

[4] = system: host cell proteins (HCP); assay: Microtiter plate chromatography of resins, host cell proteins (bound); type: binding, CHO; conditions: host cell proteins
Description: Flowthrough from protein A chromatography (referred to as host cell proteins) was derived from the supernatant of antibody-producing CHO cell culture in serum-free medium.
as §1, §2, §3, §6

[5] = system: Palivizumab; assay: Microtiter plate chromatography of resins, Palivizumab (bound, yield); type: binding, humanized
Description: as §1, §2, §3, §4, §6

[6] = system: human poly-IgG (h-poly-IgG); assay: Microtiter plate chromatography of resins, human poly-IgG (bound, yield); type: binding
Description: as §1, §2, §3, §4, §6

SMILES	Selectivity [1]	Bevacizumab IgG Bound (%) [2] [%]	Bevacizumab IgG Yield (%) [2] [%]	Tocilizumab Bound (%) [3] [%]	Tocilizumab Yield (%) [3] [%]	HCP Bound (%) [4] [%]	Palivizumab Bound (%) [5] [%]	Palivizumab Yield (%) [5] [%]	h-poly-IgG Bound (%) [6] [%]	h-poly-IgG Yield (%) [6] [%]
COc1ccc(NC(=O)c2cncc(-c3cc4ccccc4s3)c2)cc1C(=O)NCCCN [Ligand L14, 5-[3-(2-Benzothienyl)pyridin-5-yl]carboxamido-2-methoxybenzoic acid N-(3-aminopropyl)amide]	1.3	99	89	82	74	74	66	61	73	62
COc1ccc(NC(=O)c2cc(-c3ccccc3)n(C)n2)cc1C(=O)NCCCN [Ligand L15, 2-Methoxy-5-(1-methyl-5-phenylpyrazol-3-yl)carboxamidobenzoic acid N-(3-aminopropyl)amide]	1.6	99	94	100	98	64	100	90	98	83
COc1ccc(NC(=O)c2cc(-c3cccn3C)n(C)n2)cc1C(=O)NCCCN [Ligand L16, 2-Methoxy-5-[5-(1-methyl-2-pyrrolyl)-1-methylpyrazol-3-yl]carboxamidobenzoic acid N-(3-aminopropyl)amide]	2.0	100	93	100	96	51	100	90	96	83
Cn1nc(C(=O)Nc2ccc(C(=O)NCCCN)cc2)cc1-c1ccco1 [Ligand L18, 4-[5-(2-Furyl)-1-methylpyrazol-3-yl]carboxamidobenzoic acid N-(3-aminopropyl)amide]	2.2	100	95	76	76	46	54	43	68	71
Cn1nc(C(=O)Nc2nc(C(=O)NCCCN)cs2)cc1-c1cccs1 [Ligand L19, 2-[1-Methyl-5-(2-thienyl)pyrazol-3-yl]carboxamidothiazole-4-carboxylic acid N-(3-aminopropyl)amide]	1.8	100	99	47	48	56	18	16	49	48
